The compounds below were run against T1, Recombinant Human 5′-Nucleotidase (CD73) (Homo sapiens, UniProt P21589) (assay: CD73 Enzyme Assay). Conditions: 0.5 nM human CD73, 30 μM AMP, PiColorLock phosphate detection, OD 635 nm; read-out: Potency (IC50).
T1 construct: CHO derived CD73 (Trp27-Lys547), with a C-terminal 6-His tag; 6-His (C); purchased R&D 5795-EN; host or cells: CHO
T1 sequence (P21589 27-547): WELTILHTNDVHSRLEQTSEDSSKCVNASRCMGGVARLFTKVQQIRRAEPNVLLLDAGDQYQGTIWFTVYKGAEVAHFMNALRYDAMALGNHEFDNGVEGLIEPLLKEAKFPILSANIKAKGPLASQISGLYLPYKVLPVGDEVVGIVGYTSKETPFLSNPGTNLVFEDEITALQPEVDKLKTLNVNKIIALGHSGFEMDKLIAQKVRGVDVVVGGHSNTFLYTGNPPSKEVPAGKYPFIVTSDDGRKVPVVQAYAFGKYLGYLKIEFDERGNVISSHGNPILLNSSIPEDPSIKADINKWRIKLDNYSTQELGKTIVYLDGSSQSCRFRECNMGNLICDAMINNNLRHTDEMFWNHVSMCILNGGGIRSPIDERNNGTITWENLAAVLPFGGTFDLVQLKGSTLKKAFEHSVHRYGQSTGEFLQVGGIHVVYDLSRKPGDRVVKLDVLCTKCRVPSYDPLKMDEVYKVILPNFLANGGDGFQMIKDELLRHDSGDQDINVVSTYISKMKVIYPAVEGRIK
Type: biochemical
From the text: Soluble recombinant CD73 catalyzes the conversion of adenosine monophosphate (AMP) to adenosine and inorganic phosphate. The phosphate detection reagent, PiColorLock™ (Innova Bioscience, Cat #303-0125) is based on the change in absorbance of the dye malachite green in the presence of inorganic phosphate (Pi) and this property can be exploited to measure any enzyme that generates Pi. Recombinant Human 5′-Nucleotidase (CD73) (R&D #5795-EN, CHO derived CD73 (Trp27-Lys547), with a C-terminal 6-His tag) was used in the enzymatic assay. This assay was run in a 384-well plate format (Corning® NBS™ 384 well plates, Cat #3640). The basic assay procedure involves two steps: 1) Enzyme reaction: The CD73 enzyme (R&D #5795-EN) is incubated in the presence or absence of compounds. AMP (sigma, cat #01930) is added to start the kinase reaction. 2) Detection step: “Gold mix” is added to the assay system, then stabilizers are added. After incubation the absorbance of the solution is read at OD 635 nm. The recorded OD signal is proportional to the enzyme activity.
Briefly, 25 μl human CD73 (0.5 nM final concentration) in the enzymatic buffer solutions (20 mM Tris, 25 mM NaCl, 1 mM MgCl2, pH 7.5, 0.005% Tween-20) were mixed with various concentrations of the test compound (dissolved in 100% DMSO). These solutions were incubated for 15 min at 25° C., and subsequently 25 μl AMP (30 μM final concentration) was added to start the reaction. The final reaction mixture of enzyme-substrate-compound was incubated for 20 min at 37° C. Meanwhile, “Gold mix” was prepared shortly before use by adding 1/100 vol. of accelerator to the PiColorLock™ Gold reagent. 12 μL/well of the “Gold mix” was added to assay plate containing 50 μL enzyme reaction buffer and incubated at 25° C. for 5 min. 5 μL/well stabilizer was added to the assay plate and incubated at 25° C. for 30 min. The absorbance of the well solutions was measured at 635 nm on a Spark 10M instrument (TECAN).
The percent (%) inhibition at each concentration of a compound was calculated relative to the OD value in the Max and Min control wells contained within each assay plate. The Max control wells contained enzyme and substrate as 0% inhibition, and the Min control wells only contained substrate without enzyme as 100% inhibition. The concentrations and percent inhibition values for a test compound are plotted and the concentration of the compound required to achieve 50% inhibition (IC50) was determined with a four-parameter logistic dose response equation.

| IC50 | Structure (SMILES) |
| --- | --- |
| 100 to 999 nM | COC1CCC(Nc2nc(Cl)nc3cc([C@@H]4O[C@H](COP(=O)(O)CP(=O)(O)O)[C@@H](O)[C@H]4O)ccc23)CC1 (stereo partly drawn) [Compound 27, [({[(2R,3S,4R,5S)-5-{2-chloro-4-[(4-methoxycyclohexyl)amino]quinazolin-7-yl}-3,4-dihydroxyoxolan-2-yl]methoxy}(hydroxy)phosphoryl)methyl]phosphonic acid] |
| > 1000 nM | O=P(O)(O)CP(=O)(O)OC[C@H]1O[C@@H](c2ccc3c(NCc4ccccc4)ncnc3c2)[C@@H](F)[C@@H]1O [Compound 11, [({[(2R,3R,4S,5S)-5-[4-(benzylamino)quinazolin-7-yl]-4-fluoro-3-hydroxyoxolan-2-yl]methoxy}(hydroxy)phosphoryl)methyl]phosphonic acid] |
| > 1000 nM | N#C[C@@]1(c2ccc3c(NCc4ccccc4)nc(Cl)nc3c2)O[C@H](COP(=O)(O)CP(=O)(O)O)[C@@H](O)[C@H]1O [Compound 16, (((((2R,3S,4R,5R)-5-(4-(benzylamino)-2-chloroquinazolin-7-yl)-5-cyano-3,4-dihydroxytetrahydrofuran-2-yl)methoxy)(hydroxy)phosphoryl)methyl)phosphonic acid] |
| 100 to 999 nM | O=P(O)(O)CP(=O)(O)OC[C@H]1O[C@@H](c2cc3nc(Cl)nc(NCc4ccccc4)c3cc2F)[C@H](O)[C@@H]1O [Compound 19, (((((2R,3S,4R,5S)-5-(4-(benzylamino)-2-chloro-6-fluoroquinazolin-7-yl)-3,4-dihydroxytetrahydrofuran-2-yl)methoxy)(hydroxy)phosphoryl)methyl)phosphonic acid] |
| 10 to 99 nM | O=P(O)(O)CP(=O)(O)OC[C@H]1O[C@@H](c2ccc3c(N[C@@H]4CCOC4)nc(Cl)nc3c2)[C@H](O)[C@@H]1O [Compound 38, (((((2R,3S,4R,5S)-5-(2-chloro-4-(((R)-tetrahydrofuran-3-yl)amino)quinazolin-7-yl)-3,4-dihydroxytetrahydrofuran-2-yl)methoxy)(hydroxy)phosphoryl)methyl)phosphonic acid] |
| 10 to 99 nM | O=P(O)(O)CP(=O)(O)OC[C@H]1O[C@@H](c2ccc3c(N4CCc5ccccc5C4)nc(Cl)nc3c2)[C@H](O)[C@@H]1O [Compound 36, [({[(2R,3S,4R,5S)-5-[2-chloro-4-(3,4-dihydro-1H-isoquinolin-2-yl)quinazolin-7-yl]-3,4-dihydroxyoxolan-2-yl]methoxy}(hydroxy)phosphoryl)methyl]phosphonic acid] |
| 10 to 99 nM | O=P(O)(O)CP(=O)(O)OC[C@H]1O[C@@H](c2ccc3c(N[C@H]4CCOC4)nc(Cl)nc3c2)[C@H](O)[C@@H]1O [Compound 37, (((((2R,3S,4R,5S)-5-(2-chloro-4-(((S)-tetrahydrofuran-3-yl)amino)quinazolin-7-yl)-3,4-dihydroxytetrahydrofuran-2-yl)methoxy)(hydroxy)phosphoryl)methyl)phosphonic acid] |
| 10 to 99 nM | O=P(O)(O)CP(=O)(O)OC[C@H]1O[C@@H](c2ccc3c(N4CCCC4)nc(Cl)nc3c2)[C@H](O)[C@@H]1O [Compound 29, (((((2R,3S,4R,5S)-5-(2-chloro-4-(pyrrolidin-1-yl)quinazolin-7-yl)-3,4-dihydroxytetrahydrofuran-2-yl)methoxy)(hydroxy)phosphoryl)methyl)phosphonic acid] |
| 10 to 99 nM | CN(c1nc(Cl)nc2cc([C@@H]3O[C@H](COP(=O)(O)CP(=O)(O)O)[C@@H](O)[C@H]3O)cnc12)C1CCCC1 [Compound 41, (((((2R,3S,4R,5S)-5-(2-chloro-4-(cyclopentyl(methyl)amino)pyrido[3,2-d]pyrimidin-7-yl)-3,4-dihydroxytetrahydrofuran-2-yl)methoxy)(hydroxy)phosphoryl)methyl)phosphonic acid] |
| > 1000 nM | O=P(O)(O)CP(=O)(O)OC[C@H]1O[C@H](c2ccc3c(NCc4ccccc4)nc(Cl)nc3c2)[C@@H](F)[C@@H]1O [Compound 14, [({[(2R,3R,4S, 5R)-5-[4-(benzylamino)-2-chloroquinazolin-7-yl]-4-fluoro-3-hydroxyoxolan-2-yl]methoxy}(hydroxy)phosphoryl)methyl]phosphonic acid] |
